Patent publication US9499550B2 (BRISTOL-MYERS SQUIBB COMPANY, priority 2012, dated 2016)
Read-outs that look alike come from different tables or passages of the source.

What was measured:
[1] = tested on: HCV genotype 1a (H77 strain) replicon in HUH-7 cells; assay: HCV replicon luciferase reporter assay, genotype 1a; format: cell-based; settings: Hepatitis C virus, Huh-7, 72 h, 3 days incubation
Summary of the method: (§1)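 Replicon inhibition for both genotypes was measured as Renilla luciferase signal (EnduRen, 7.5 μM final, 2 h) after 3-day, 37° C exposure of replicon-bearing HUH-7 cells in 4% FCS DMEM, 0.5% DMSO. The 1b construct carries S1179I; the 1a H77 construct carries P1496L and S2204I. Twenty-point, 3-fold dilutions were fitted four-parametrically for EC50, and CC50 was taken from multiplexed Cell Titer-Blue.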

[2] = tested on: HCV genotype 1b (Con1) replicon in HUH-7 cells; assay: HCV replicon luciferase reporter assay, genotype 1b; format: cell-based; settings: Hepatitis C virus, Huh-7, 72 h, 3 days incubation
Summary of the method: as §1

[3] = GETYPE1A, HCV genotype 1a replicon luciferase, read-out: LE_1a (EC50, range)
[4] = GETYPE1B, HCV genotype 1b replicon luciferase, read-out: LE_1b (EC50, range)
[5] = HCV genotype 1a replicon luciferase, read-out: LE_1a (EC50, range)
[6] = HCV genotype 1b replicon luciferase, read-out: LE_1b (EC50, range)
[7] = HCV genotype 1a replicon luciferase assay, range class, read-out: LE_1a (EC50, range)
[8] = HCV genotype 1b replicon luciferase assay, range class, read-out: LE_1b (EC50, range)

CC[C@@H]1C[C@H](C)CC/C=C\[C@@H]2C[C@@]2(C(=O)NS(=O)(=O)C2(C)CC2)NC(=O)[C@@H]2C[C@@H](Oc3cc(OC)nc4cc(OC)c(F)cc34)CN2C(=O)[C@H]1NC(=O)OC(C)(C)C(F)(F)F [Compound 1199]
EC50 [1, 3]: 1.01 to 5 nM
EC50 [2, 4]: 1.01 to 5 nM

CC[C@@H]1C[C@H](C)CC/C=C\[C@@H]2C[C@@]2(C(=O)NS(=O)(=O)C2(C)CC2)NC(=O)[C@@H]2C[C@@H](Oc3cc(OC)nc4cc(OC)c(F)cc34)CN2C(=O)[C@H]1NC(=O)OC(C)(C)C(C)(F)F [Compound 1200]
EC50 [1, 3]: 1.01 to 5 nM
EC50 [2, 4]: 1.01 to 5 nM

CC[C@@H]1C[C@H](C)CC/C=C\[C@@H]2C[C@@]2(C(=O)NS(=O)(=O)C2CC2)NC(=O)[C@@H]2C[C@@H](Oc3cc(OC)nc4cc(OC)c(F)cc34)CN2C(=O)[C@H]1NC(=O)OC(C)(C)C(F)(F)F [Compound 1201]
EC50 [1, 3]: 1.01 to 5 nM
EC50 [2, 4]: 1.01 to 5 nM

CC[C@@H]1C[C@H](C)CC/C=C\[C@@H]2C[C@@]2(C(=O)NS(=O)(=O)C2CC2)NC(=O)[C@@H]2C[C@@H](Oc3cc(OC)nc4cc(OC)c(F)cc34)CN2C(=O)[C@H]1NC(=O)OC(C)(C)C(C)(F)F [Compound 1202]
EC50 [1, 3]: 1.01 to 5 nM
EC50 [2, 4]: 0.51 to 1 nM

COc1cc(O[C@@H]2C[C@H]3C(=O)N[C@]4(C(=O)NS(=O)(=O)C5(C)CC5)C[C@H]4/C=C\CC[C@@H](C)C[C@@H](C)[C@H](NC(=O)OC(C)(C)C(F)(F)F)C(=O)N3C2)c2cc(F)c(OC)cc2n1 [Compound 1203]
EC50 [1, 3]: 1.01 to 5 nM
EC50 [2, 4]: 0.1 to 0.5 nM

COc1cc(O[C@@H]2C[C@H]3C(=O)N[C@]4(C(=O)NS(=O)(=O)C5(C)CC5)C[C@H]4/C=C\CC[C@@H](C)C[C@@H](C)[C@H](NC(=O)OC(C)(C)C(C)(F)F)C(=O)N3C2)c2cc(F)c(OC)cc2n1 [Compound 1204]
EC50 [1, 3]: 1.01 to 5 nM
EC50 [2, 4]: 0.51 to 1 nM

COc1ccc2c(O[C@@H]3C[C@H]4C(=O)N[C@]5(C(=O)NS(=O)(=O)C6CC6)C[C@H]5/C=C\CC[C@@H](C)C[C@@H](C)[C@H](NC(=O)OC(C)(C)C)C(=O)N4C3)nccc2c1 [Compound 1205, tert-butyl ((2R,6S,7R,9R,13aS,14aR,16aS,Z)-14a-((cyclopropylsulfonyl)carbamoyl)-2-((6-methoxyisoquinolin-1-yl)oxy)-7,9-dimethyl-5,16-dioxo-1,2,3,5,6,7,8,9,10,11,13a,14,14a,15,16,16a-hexadecahydrocyclopropa[e]pyrrolo[1,2-a][1,4]diazacyclopentadecin-6-yl)carbamate]
EC50 ([1]; HCV genotype 1a replicon luciferase, read-out: LE_1a (EC50)): 0.62 nM
EC50 [1, 5]: 0.51 to 1 nM
EC50 ([2]; HCV genotype 1b replicon luciferase, read-out: LE_1b (EC50)): 0.75 nM
EC50 [2, 6]: 0.51 to 1 nM

COc1ccc2c(O[C@@H]3C[C@H]4C(=O)N[C@]5(C(=O)NS(=O)(=O)C6CC6)C[C@H]5/C=C\CC[C@H](C)C[C@@H](C)[C@H](NC(=O)OC(C)(C)C)C(=O)N4C3)nccc2c1 [Compound 1206, tert-butyl ((2R,6S,7R,9S,13aS,14aR,16aS,Z)-14a-((cyclopropylsulfonyl)carbamoyl)-2-((6-methoxyisoquinolin-1-yl)oxy)-7,9-dimethyl-5,16-dioxo-1,2,3,5,6,7,8,9,10,11,13a,14,14a,15,16,16a-hexadecahydrocyclopropa[e]pyrrolo[1,2-a][1,4]diazacyclopentadecin-6-yl)carbamate]
EC50 [1, 5]: 1.01 to 5 nM
EC50 [2, 6]: 1.01 to 5 nM

COc1cnc(O[C@@H]2C[C@H]3C(=O)N[C@]4(C(=O)NS(=O)(=O)C5CC5)C[C@H]4/C=C\CC[C@@H](C)C[C@@H](C)[C@H](NC(=O)OC(C)(C)C)C(=O)N3C2)c2cc(Cl)ccc12 [Compound 1207, tert-butyl ((2R,6S,7R,9R,13aS,14aR,16aS,Z)-2-((7-chloro-4-methoxyisoquinolin-1-yl)oxy)-14a-((cyclopropylsulfonyl)carbamoyl)-7,9-dimethyl-5,16-dioxo-1,2,3,5,6,7,8,9,10,11,13a,14,14a,15,16,16a-hexadecahydrocyclopropa[e]pyrrolo[1,2-a][1,4]diazacyclopentadecin-6-yl)carbamate]
EC50 [1, 5]: 1.01 to 5 nM
EC50 [2, 6]: 0.51 to 1 nM

COc1cnc(O[C@@H]2C[C@H]3C(=O)N[C@]4(C(=O)NS(=O)(=O)C5CC5)C[C@H]4/C=C\CC[C@H](C)C[C@@H](C)[C@H](NC(=O)OC(C)(C)C)C(=O)N3C2)c2cc(Cl)ccc12 [Compound 1208, tert-butyl ((2R,6S,7R,9S,13aS,14aR,16aS,Z)-2-((7-chloro-4-methoxyisoquinolin-1-yl)oxy)-14a-((cyclopropylsulfonyl)carbamoyl)-7,9-dimethyl-5,16-dioxo-1,2,3,5,6,7,8,9,10,11,13a,14,14a,15,16,16a-hexadecahydrocyclopropa[e]pyrrolo[1,2-a][1,4]diazacyclopentadecin-6-yl)carbamate]
EC50 [1, 5]: 5.01 to 35 nM
EC50 [2, 6]: 1.01 to 5 nM

CC[C@@H]1C[C@H](C)CC/C=C\[C@@H]2C[C@@]2(C(=O)NS(=O)(=O)C2(C)CC2)NC(=O)[C@@H]2C[C@@H](Oc3cc(OC)nc4cc(OC)ccc34)CN2C(=O)[C@H]1NC(=O)OC(C)(C)C(F)(F)F [Compound 1209]
EC50 ([1]; GETYPE1A, HCV genotype 1a replicon luciferase, read-out: LE_1a (EC50)): 5.66 nM
EC50 [1, 3]: 5.01 to 35 nM
EC50 ([2]; GETYPE1B, HCV genotype 1b replicon luciferase, read-out: LE_1b (EC50)): 2 nM
EC50 [2, 4]: 1.01 to 5 nM

CC[C@@H]1C[C@H](C)CC/C=C\[C@@H]2C[C@@]2(C(=O)NS(=O)(=O)C2(C)CC2)NC(=O)[C@@H]2C[C@@H](Oc3cc(OC)nc4cc(OC)ccc34)CN2C(=O)[C@H]1NC(=O)OC(C)(C)C(C)(F)F [Compound 1210]
EC50 [1, 3]: 1.01 to 5 nM
EC50 [2, 4]: 0.51 to 1 nM

CC[C@@H]1C[C@H](C)CC/C=C\[C@@H]2C[C@@]2(C(=O)NS(=O)(=O)C2CC2)NC(=O)[C@@H]2C[C@@H](Oc3cc(OC)nc4cc(OC)ccc34)CN2C(=O)[C@H]1NC(=O)OC(C)(C)C(F)(F)F [Compound 1211]
EC50 [1, 3]: 1.01 to 5 nM
EC50 [2, 4]: 0.51 to 1 nM

CC[C@@H]1C[C@H](C)CC/C=C\[C@@H]2C[C@@]2(C(=O)NS(=O)(=O)C2CC2)NC(=O)[C@@H]2C[C@@H](Oc3cc(OC)nc4cc(OC)ccc34)CN2C(=O)[C@H]1NC(=O)OC(C)(C)C(C)(F)F [Compound 1212]
EC50 [1, 3]: 1.01 to 5 nM
EC50 [2, 4]: 0.1 to 0.5 nM

COc1ccc2c(O[C@@H]3C[C@H]4C(=O)N[C@]5(C(=O)NS(=O)(=O)C6(C)CC6)C[C@H]5/C=C\CC[C@@H](C)C[C@@H](C)[C@H](NC(=O)OC(C)(C)C(F)(F)F)C(=O)N4C3)cc(OC)nc2c1 [Compound 1213]
EC50 [1, 3]: 1.01 to 5 nM
EC50 [2, 4]: 0.51 to 1 nM

COc1ccc2c(O[C@@H]3C[C@H]4C(=O)N[C@]5(C(=O)NS(=O)(=O)C6(C)CC6)C[C@H]5/C=C\CC[C@@H](C)C[C@@H](C)[C@H](NC(=O)OC(C)(C)C(C)(F)F)C(=O)N4C3)cc(OC)nc2c1 [Compound 1214]
EC50 [1, 3]: 1.01 to 5 nM
EC50 [2, 4]: 0.1 to 0.5 nM

C[C@@H]1CCC(O)C[C@@H]2C[C@@]2(C(=O)NS(=O)(=O)C2(C)CC2)NC(=O)[C@@H]2C[C@@H](Oc3ncc(OC4CC4)c4ccccc34)CN2C(=O)[C@@H](NC(=O)OC(C)(C)C(F)(F)F)[C@H](C)C1 (stereo partly drawn) [Compound 2001, 1,1,1-trifluoro-2-methylpropan-2-yl ((2R,6S,7R,9R,13aS,14aR,16aS)-2-((4-cyclopropoxyisoquinolin-1-yl)oxy)-12-hydroxy-7,9-dimethyl-14a-(((1-methylcyclopropyl)sulfonyl)carbamoyl)-5,16-dioxooctadecahydrocyclopropa[e]pyrrolo[1,2-a][1,4]diazacyclopentadecin-6-yl)carbamate]
EC50 [1, 7]: 4.82 to 103 nM
EC50 [2, 8]: 4.82 to 103 nM

C[C@@H]1CCCC(O)[C@@H]2C[C@@]2(C(=O)NS(=O)(=O)C2(C)CC2)NC(=O)[C@@H]2C[C@@H](Oc3ncc(OC4CC4)c4ccccc34)CN2C(=O)[C@@H](NC(=O)OC(C)(C)C(F)(F)F)[C@H](C)C1 (some centres unmarked) [Compound 2002]
EC50 [1, 7]: 4.82 to 103 nM
EC50 [2, 8]: 4.82 to 103 nM

C[C@@H]1CC/C=C\[C@@H]2C[C@@]2(C(=O)NS(=O)(=O)C2(C)CC2)NC(=O)[C@@H]2C[C@@H](Oc3nccc4cc(OCC(=O)O)ccc34)CN2C(=O)[C@@H](NC(=O)OC(C)(C)C)[C@H](C)C1 [Compound 2003, 2-((1-(((2R,6S,7R,9R,13aS,14aR,16aS,Z)-6-((tert-butoxycarbonyl)amino)-7,9-dimethyl-14a-(((1-methylcyclopropyl)sulfonyl)carbamoyl)-5,16-dioxo-1,2,3,5,6,7,8,9,10,11,13a,14,14a,15,16,16a-hexadecahydrocyclopropa[e]pyrrolo[1,2-a][1,4]diazacyclopentadecin-2-yl)oxy)isoquinolin-6-yl)oxy)acetic acid]
EC50 [1, 7]: > 87.4 nM
EC50 ([1]; HCV genotype 1a replicon luciferase assay, read-out: LE_1a (EC50)): 330 nM
EC50 [2, 8]: > 87.4 nM
EC50 ([2]; HCV genotype 1b replicon luciferase assay, read-out: LE_1b (EC50)): 158 nM
